Test results reported in PMC12756723, “Derivatives of the Cashew Nut Shell Liquid as Ligands of Pseudomonas aeruginosa Phenazine Protein D (PaPhzD)” (ACS Omega, 2025).
“Also recorded” adds a separate entry of the source.

Key:
[1] = test system: P. aeruginosa cells (ATCC 27853); experiment: Screening of PYO production inhibitors (supernatant absorbance 691 nm); assay type: cell-based, Pseudomonas aeruginosa; settings: 100 μM
Protocol: P. aeruginosa cells (ATCC 27853) were inoculated by depletion on King’s A agar, and the plates were incubated at 30 °C for 24 h. Isolated colonies were collected and resuspended in sterile saline solution (0.85%) until turbidity equivalent to optical density (OD) at 600 nm, equal to 0.3 (1.5 × 10^8 CFU/mL). This bacterial suspension was diluted 10-fold and used to inoculate King’s A broth.
(§1) The potential inhibitors, previously solubilized in DMSO, were added to the culture medium after the inoculation (final concentration = 100 μM). The control group was cultured in the presence of an equivalent volume of DMSO but without the presence of potential inhibitors. The cell suspension was maintained at 30 °C under constant agitation (180 rpm) for 24 h in a 24-well plate. After this period, the OD600 was measured to evaluate bacterial growth, and in parallel, after being subjected to centrifugation, the supernatant was read in a 96-well plate at a wavelength of 691 nm. The sterile medium used for culturing the microorganism was used as a positive control, and culture medium containing 1% DMSO was used as a negative control.

[2] = test system: P. aeruginosa PA14; experiment: Biofilm assay (crystal violet); assay type: cell-based, Pseudomonas aeruginosa; settings: 100 μM, vs DMSO control
Protocol: Exponential phase cultures of P. aeruginosa PA14 were diluted to 5 × 10^5 colony forming units (CFU) in 48-well plates with LB containing each compound (1, 3, and 5) at 100 μM final concentrations or 0.1% DMSO (v/v) as a negative control. The plate was incubated steadily at 30 °C for 20 h inside a plastic bag to avoid evaporation. After the incubation, the OD600 of each well was measured in a plate reader (SpectraMax Paradigm). The planktonic bacteria were removed by turning the plate over the waste, followed by three steps of washing with distilled water. After drying, a solution of 1% crystal violet was added to each well and incubated at room temperature for 30 min to stain the attached cells forming a ring at the air–liquid interface. The crystal violet solution was removed, and the plate was washed using the same procedure. The dye was solubilized with 30% acetic acid for 30 min at room temperature. The Abs550 was measured, and the value was divided by the OD600 for each well. A total of 24 replicates were made for each treatment (6 wells per plate, four plates)

[3] = target: T1, PaPhzD-FITC (Pseudomonas aeruginosa, UniProt P0DPB9); experiment: Fluorescence binding assay with FITC-labeled PaPhzD; settings: 0.32 μM FITC-labeled PaPhzD, 25 °C, 3-parameter fit; read-out: Kd
T1 construct: inferred from Ni-NTA purification with imidazole elution; made in house; host or cells: E. coli BL21(DE3)
Protocol: PaPhzD (2.1 mg/mL) was incubated with 6 mg/mL fluorescein isothiocyanate (FITC) (Sigma-Aldrich 46950) (1:1) for 2 h at 25 °C. Next, the reaction mixture was eluted on a Hi-Trap HP desalting column (GE Healthcare) with 2 CV of 50 mM HEPES buffer (pH 8.0). The collected fractions were quantified at two different wavelengths (280 and 495 nm), and the molar ratio (Abs495/Abs280) ranging from 0.3 to 1.0 was employed for K d calculation experiments.
Subsequently, the fluorescence intensity of 0.32 μM of FITC-labeled PaPhzD was measured on a real-time thermocycler (Applied Biosystems 7500) equipped with the filter FAN (excitation wavelength: 498 nm; emission wavelength: 530 nm) for 10 min in the presence of different concentrations of each LDT compound (ranging 0.7–100 μM), previously diluted in DMSO.
The fluorescence raw data were recorded using Applied Biosystems 7500 Software v2.0, then exported to GraphPad Prism version 9.0 software to build fluorescence intensity × concentration plots and calculate K d values of the ligands by the nonlinear regression method (3-parameter fit). All experiments were carried out in triplicate using a 96-well PCR plate, manually sealed with transparent capping strips (Flatcap strips, BioRadVR).

[4] = test system: P. aeruginosa cells (ATCC 27853); experiment: Bacterial growth (OD600) in the PYO screening culture; assay type: cell-based, Pseudomonas aeruginosa; settings: 100 μM
Protocol: as §1

[5] = test system: KinA/SPOOF; set-up: method as in Kanojia et al.; settings: KinA/SPOOF from B. subtilis; ref Kanojia et al.; cited from earlier work
[6] = test system: phzA1-G1; experiment: lacZ transcriptional fusion, phzA1-G1 operon; assay type: cell-based, Pseudomonas aeruginosa; settings: late exponential phase
Protocol: (§2) P. aeruginosa harbors two identically structured operons in its genome, which encode most of the enzymes responsible for PYO synthesis (phzA1-G1 and phzA2-G2) but have slightly different regulatory regions 1. lacZ transcriptional fusions for each operon were assayed at mid-log and late exponential phases (OD=1 and 3, respectively). At mid-log cultures, the expression of both QS-regulated operons is extremely low, and it increases more than 1000-fold at late exponential phase for phzA1-G1 and 4-fold for phzA2-G2, as expected. Addition of compounds 2 and 4 had no effect for both operons in the late […]
(§3) synthesis is not related to inhibition at the transcriptional level.
(§4) Figure 7S: Effect of LDT10 (2) and LDT13 (3) on the phzA1-G1 (A) and phzA2-G2 […]
(§5) (1 picture or pasted object on this page, not shown here)

[7] = test system: human PPAR isoforms; set-up: method as in Sahin et al. 2022 (likely, number not given); settings: previously investigated; ref Sahin et al. 2022 (likely, number not given); cited from earlier work
[8] = test system: P. aeruginosa PA14; experiment: Swarming assay; assay type: cell-based, Pseudomonas aeruginosa; settings: 100 μM
Protocol: Swarming assays were performed as described, using 6-well plates. Briefly, 3 μL of culture (OD600 = 3.0) was inoculated in the center of modified M9 (20 mM NH4Cl; 12 mM Na2HPO4; 22 mM KH2PO4; 8.6 mM NaCl; 1 mM MgSO4; 1 mM CaCl2 2 H2O; 11 mM glucose; 0.5% casamino acids (Difco)) with 0.5% of Bacto-agar (Difco), containing the respective compounds (100 μM final concentration, diluted in DMSO). Plates were incubated inside plastic bags to avoid evaporation at 30 °C for 16 h. After this period, pictures were taken, and the area covered by the colonies was measured using ImageJ. All assays were performed with four replicates, and 0.1% DMSO (v/v) was employed as a negative control.

[9] = test system: phzA2-G2; experiment: lacZ transcriptional fusion, phzA2-G2 operon; assay type: cell-based, Pseudomonas aeruginosa; settings: late exponential phase
Protocol: as §2, §3, §4, §5

[10] = test system: P. aeruginosa; experiment: Colony morphology in medium containing compounds; assay type: cell-based, Pseudomonas aeruginosa; settings: data not shown

T1 sequence (P0DPB9 whole entry): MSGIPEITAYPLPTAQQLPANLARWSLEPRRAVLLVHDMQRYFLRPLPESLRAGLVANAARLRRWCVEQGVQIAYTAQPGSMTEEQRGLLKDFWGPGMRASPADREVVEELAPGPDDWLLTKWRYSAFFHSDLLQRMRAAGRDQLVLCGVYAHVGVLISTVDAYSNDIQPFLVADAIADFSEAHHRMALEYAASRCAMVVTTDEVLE

CCCCCCCCCCCCCCCc1cccc(O)c1 [Compound 2]
Pyocyanin production, Cohen's d vs control ([1]; 24 h, 30 °C): −2.56
Effect on pyocyanin production ([1]; vs DMSO control): decreased pyocyanin production
Effect on biofilm formation [2]: without affecting bacterial growth or biofilm formation; also recorded: not significantly different the control
Kd [3]: 2800 nM
Effect on bacterial growth [4]: without affecting bacterial growth; also recorded: no significant effect on bacterial growth
IC50 [5]: > 500000 nM
Effect on phzA1-G1 transcription [6]: no effect
PPAR activity profile [7]: do not activate PPAR receptors
Swarming motility, % compared to control conditions [8]: 65%
Swarming motility, Cohen's d vs control [8]: −0.91
Effect on phzA2-G2 transcription [9]: no effect
Effect on colony morphology [10]: No effects on colony morphology
